Laboratory results reported in patent publication US20220267374A1, “IMMUNITY INDUCER AND PHARMACEUTICAL COMPOSITION FOR PREVENTING OR TREATING AGING-RELATED DISEASES” (priority 2019, published 2022).
Ends that are not written are not given here.

Tests used:
GPNMB-positive cells = assay: Analysis of Gpnmb-dependent luciferase activity (in vivo IVIS imaging); design: species or system Gpnmb-DTR mouse; conditions: HFD-fed Gpnmb-DTR mouse, 16 weeks of age, s.c. vaccination at 8 weeks of age; vs control vaccine; FIG. 2B
Experimental: Gpnmb-DTR mouse bred by feeding normal diet or HFD for 4 weeks, and Gpnmb-DTR mouse bred by feeding HFD for 4 weeks, and then injecting DT (50 μg/kg body weight) at 2-week intervals (12 weeks of age and 14 weeks of age) intraperitoneally twice while continuing to feed HFD (16 weeks of age) were subjected to in vivo luciferase imaging analysis using the IVIS imaging system (Perkin Elmer). Mice were shaved ventrally, anesthetized with isoflurane (Wako Pure Chemicals Industries), and injected intraperitoneally with luciferin (150 mg/kg body weight) according to the manufacturer's instructions (Vivo-Glo; Promega). Luciferase activity was monitored 5 minutes after luciferin administration. Signals were analyzed using Living Image software (Perkin Elmer) to quantify luciferase activity. In FIG. 1B, “Before” is a Gpnmb-DTR mouse before HFD was fed (6 weeks of age), “HFD” is a Gpnmb-DTR mouse that was fed with HFD from 6 weeks of age and bred for 6 weeks (12 weeks of age), and “After DT” is a Gpnmb-DTR mouse that was bred by feeding HFD for 4 weeks and then injecting DT (50 μg/kg body weight) at 2-week intervals (12 weeks of age and 14 weeks of age) intraperitoneally twice while continuing to feed HFD (16 weeks of age). […]

[1] = Metabolic test (glucose tolerance test and insulin tolerance test); type: in vivo, C57BL/6 mice; conditions: HFD-fed mice, 16 weeks of age, s.c. vaccination at 8 weeks of age; compared to control vaccine; FIG. 2I
Experimental: Mice were bred individually from 1 week before the test. On the day of the glucose tolerance test (GTT), mice were fasted for 6 hours, followed by intraperitoneal injection of glucose at a dose of 1 g/kg (body weight) in the early afternoon. For the insulin tolerance test (ITT), mice were intraperitoneally administered with human insulin (1 U/kg (body weight)). After administration of glucose or insulin, tail venous blood was collected 0, 15, 30, 60 and 120 minutes later, and the blood glucose level was measured with a glucose analyzer (Sanwa Chemical Research Institute).
A metabolic test was performed using the same method as in “5.” of Reference Example 1, except that C57BL/6 mice (16 weeks of age) bred by feeding HFD from 4 weeks of age and administered with peptide vaccine 1, peptide vaccine 2, or control vaccine by subcutaneous injection at a time point of 8 weeks of age were used. In FIG. 2I, “Cont vaccine” is a C57BL/6 mouse administered with a control vaccine, “Gpnmb vaccine 1” is a C57BL/6 mouse administered with peptide vaccine 1, and “Gpnmb vaccine 2” is a C57BL/6 mouse administered with peptide vaccine 2.

GPNMB protein = assay: Western blotting analysis of adipose tissue; type: in vivo, C57BL/6 mice; conditions: HFD-fed mice, 16 weeks of age, s.c. vaccination at 8 weeks of age, vs control vaccine, FIGS. 2C, 2D
Experimental: For adipose tissue collected from C57BL/6 mice (16 weeks of age) bred by feeding HFD from 4 weeks of age and administered with peptide vaccine 1 or a control vaccine by subcutaneous injection at a time point of 8 weeks of age, whole-cell lysates were prepared in lysis buffer (containing 10 mmol/L of Tris-HCl (pH 8), 140 mmol/L of sodium chloride, 5 mmol/L of EDTA, 0.025% of NaN3, 1 w/v % of Triton X-100, 1 w/v % of deoxycholic acid, 0.1 w/v % of SDS, 1 mmol/L of phenylmethylsulfonyl fluoride (PMSF), 5 μg/mL of leypeptin, 2 μg/mL of aprotinin, 50 mmol/L of NaF, and 1 mmol/L of […]). Then the lysates (40 to 50 μg) was separated by SDS-PAGE, the protein was transferred to a PVDF membrane (Millipore), and this was incubated with a primary antibody, followed by horseradish peroxidase (Jackson)-binding anti-rabbit immunoglobulin G (Jackson ImmunoResearch). GPNMB and β-actin were detected by enhanced chemiluminescence (Amersham). As a primary antibody, an anti-GPNMB antibody (AF2330, R & D Systems) (1/1000 dilution) was used, and as a control, anti-β-actin antibody (#4967, Cell Signaling) (1/5000 dilution) was used. As a secondary antibody, peroxidase-binding AffiniPure goat anti-rabbit IgG (H+L) (111-035-003, Jackson ImmunoResearch) (1/10000 dilution) was used. […]

For “RRGDGRWKD (also: KLH conjugate; listed as Mus musculus) [peptide vaccine 1, peptide of positions 63 to 71 of mouse GPNMB protein]”, the Gpnmb-dependent luciferase activity (GPNMB-positive cells) was “decreased”, the “metabolic abnormality induced by HFD intake (glucose tolerance test and insulin tolerance test)” value [1] was “significantly improved” and the “expression amount of GPNMB protein” value (GPNMB protein) was “decreased”.
